Measurements from PubChem BioAssay (NCI).
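At the GI50, growth is halved. TGI is the concentration that stops growth completely.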

What was measured:
Assay in all cases: NCI anticancer screen, dose series, 384-well format
786-0 renal = system: 786-0 renal
HCC-2998 colon = system: HCC-2998 colon
HCT-15 colon = system: HCT-15 colon
IGROV1 ovarian = system: IGROV1 ovarian
M14 melanoma = system: M14 melanoma
MCF7 breast = system: MCF7 breast
MDA-MB-231 breast = system: MDA-MB-231 breast
NCI-H23 lung = system: NCI-H23 lung
NCI-H460 NSCLC = system: NCI-H460 NSCLC
NCI-H522 lung = system: NCI-H522 lung
NCI/ADR-RES ovarian = system: NCI/ADR-RES ovarian
RXF 393 renal = system: RXF 393 renal
SK-MEL-28 melanoma = system: SK-MEL-28 melanoma

Structure (SMILES)	GI50 (786-0 renal) [µM]	TGI (786-0 renal) [µM]	GI50 (HCC-2998 colon) [µM]	TGI (HCC-2998 colon) [µM]	GI50 (HCT-15 colon) [µM]	TGI (HCT-15 colon) [µM]	GI50 (IGROV1 ovarian) [µM]	TGI (IGROV1 ovarian) [µM]	GI50 (M14 melanoma) [µM]	TGI (M14 melanoma) [µM]	GI50 (MCF7 breast) [µM]	TGI (MCF7 breast) [µM]	GI50 (MDA-MB-231 breast) [µM]	TGI (MDA-MB-231 breast) [µM]	GI50 (NCI-H23 lung) [µM]	TGI (NCI-H23 lung) [µM]	GI50 (NCI-H460 NSCLC) [µM]	TGI (NCI-H460 NSCLC) [µM]	GI50 (NCI-H522 lung) [µM]	TGI (NCI-H522 lung) [µM]	further results
[2H]c1nc(C)nc([2H])c1-c1cc(NC[C@@H](C)c2cccc3c(C(=O)NC)ccnc23)ncn1	> 100	> 100	> 100	> 100	> 100	> 100	> 100	> 100	> 100	> 100	> 100	> 100	> 100	> 100	> 100	> 100	> 100	> 100	> 100	> 100	GI50 (NCI/ADR-RES ovarian): > 100 µM; TGI (NCI/ADR-RES ovarian): > 100 µM; GI50 (RXF 393 renal): > 100 µM; TGI (RXF 393 renal): > 100 µM; GI50 (SK-MEL-28 melanoma): > 100 µM; TGI (SK-MEL-28 melanoma): > 100 µM
CC(C)N(CCCNC(=O)Nc1ccc(C(C)(C)C)cc1)C[C@H]1O[C@@H](n2ccc3c(N)ncnc32)[C@H](O)[C@@H]1O	> 100	> 100	> 100	> 100	> 100	> 100	> 72.4	> 100	> 100	> 100	> 100	> 100	> 100	> 100	> 100	> 100	> 100	> 100	> 100	> 100	GI50 (NCI/ADR-RES ovarian): > 100 µM; TGI (NCI/ADR-RES ovarian): > 100 µM; GI50 (RXF 393 renal): > 100 µM; TGI (RXF 393 renal): > 100 µM; GI50 (SK-MEL-28 melanoma): > 100 µM; TGI (SK-MEL-28 melanoma): > 100 µM
